Experiment [1] concerns the target T1, GLP1R (Homo sapiens, UniProt P43220). In words: β-Arrestin-mediated GLP1R internalization assay (PathHunter engineered U2OS cells). As to conditions: averaged Bmax, percentage of control GLP-1 (7-37), highest concentration tested. It counts as cell-based. Details: host or cells: PathHunter engineered U2OS cells. From the text: A similar assay can also be used to assess the extent of signal attenuation due to GLP-1R internalization (the β-Arrestin Internalization Assay). In this assay, activated GLP1R Internalization cells were engineered to co-express an untagged GLP1R, Enzyme Acceptor (EA) tagged β-Arrestin, and a ProLink™ (PK) tag localized to the endosomes. Activation of the GLP1R induces β-Arrestin recruitment, which leads to internalization of the Receptor/Arrestin-EA complex in PK-tagged endosomes. This forces complementation of the two β-galactosidase enzyme fragments (EA and PK) to form a functional enzyme that hydrolyzes substrate to generate a chemiluminescent signal. These cells have been modified to prevent long term propagation and expansion using a proprietary compound that has no apparent effect on assay performance.
Specifically, PathHunter engineered U2OS cells from the assay kit (Cat #93-0724E3CP0L) were plated at a density of 2000 cells/20 μL/well in a 384-well white/clear bottom plates (Greiner Cat #781098). Frozen cells were quickly thawed and 10 mL of cell plating medium (provided by the kit) was added to thawed cells. Cells were stored in a 37° C. incubator and kept for approximately 48 hours until ready for the assay.
Reference and test compounds were dissolved in 100% DMSO. 5× concentration of an agonist was prepared in serum free DMEM (Thermo Cat #11965). 5 μL of this solution was added to 20 μL cell medium in assay plate for a final top concentration of 10 μM. Plates were incubated at 37° C. for 180 min.
Following 180 min incubation, detection reagents were made up by combining 1 part Galacton Star Substrate with 5 parts Emerald II™ Solution, and 19 parts of PathHunter Cell Assay Buffer, respectively. 12.5 μL detection reagent was added to each well. The plates were then incubated at room temperature for 60 min. Plates were then read on Envision for 0.1 sec/well.
(§1) EC50 determinations were made from agonist dose-response curves analyzed with a curve fitting program using a 4-parameter logistic dose response equation.

Experiment [2] has as its target T1, GLP1R. Kind of experiment: GLP-1R/β-Arrestin recruitment assay (PathHunter eXpress GLP1R CHO-K1 β-Arrestin GPCR Assay). Set-up: host or cells: PathHunter CHO-K1 GLP1R β-Arrestin cells. It counts as cell-based. Conditions: averaged Bmax, percentage of control GLP-1 (7-37), highest concentration tested.
Text: GLP-1R agonist activity with respect to β-arrestin recruitment can be determined with a cell-based functional assay using PathHuntcr eXpress GLP1R CHO-K1 β-Arrestin GPCR Assay kit (DiscovcrX Cat #93-0300E2CP0M).
The PathHunter β-Arrestin GPCR assay technology utilizes a β-galactosidase (β-gal) enzyme that is split into two fragments, the smaller Enzyme Donor (ED) and the larger Enzyme Acceptor (EA). These fragments can be fused to two proteins that may interact with each other, such as EA-β-Arrestin and ED-GLP-1R. The fusions can be stably expressed in a test cell line, such as the PathHunter CHO-K1 GLP1R β-Arrestin cells described below.
Independently, these fragment fusions have no β-gal activity; however, in solution or in a living cell, they can be brought together and complement to form an active β-gal enzyme due to the interaction between the fused proteins, thus generating a chemiluminescent signal in the presence of a suitable β-gal substrate.
In this experiment, PathHunter CHO-K1 GLP1R β-Arrestin cells from the assay kit were plated at a density of 1000 or 2000 cells/20 μl/well in a 384-well white/clear bottom plates (Greiner Cat #781098). Frozen cells were quickly thawed and 10 mL of cell plating medium (provided by the kit) was added to thawed cells. Cells were stored in a 37° C. incubator under 5% CO2 and kept for approximately 48 hours until ready to ran the assay.
Reference and test compounds were dissolved in 100% DMSO. 5× concentration of an agonist was prepared in serum free DMEM (Thermo Cat #11965). 5 μL of this solution was added to 20 μL cell medium in assay plate for a final top concentration of 10 μM. Plates were then incubated at 37° C. under 5% CO2 for 90 min.
Following 90 min incubation, detection reagents were made up by combining 1 part Galacton Star Substrate with 5 parts Emerald II™ Solution, and 19 parts of PathHunter Cell Assay Buffer, respectively. 12.5 μL detection reagent was added to each well. The plates were then incubated at room temperature in dark for 60 min. Plates were then read on Envision for 0.1 sec/well.
as §1
Cells were plated at a density of 1000 or 2000 cells/20 μL/well. Frozen cells were quickly thawed and added to 10 mL of cell plating medium. Cells were stored in a 37° C. incubator under 5% CO2 and left for approximately 48 hours until ready to run the assay.
• 1) Reference agonist compound GLP1 (7-37): dissolved with DMSO to make 1 mM stock solutions, aliquoted and stored at −80° C. • 2) Test compounds (such as the compounds of the invention) came solubilized in 100% DMSO.
Prepare 10× concentration of an agonist in serum free DMEM, and add all solutions into the compound plate. 2.5 μL of this solution was added to 20 μL cell medium in assay plate for a final top concentration of 10 μM. Plates were incubated at 37° C. under 5% CO2 for 30 min. An additional 2.5 μL of Buffer was added to the entire plate for agonist mode and incubated at 37° C. for another 90 min.
Following 90 min incubation, detection reagents were made up as described. 12.5 μL was added to all wells. The plates were then incubated at room temperature in dark for 60 min. Plates were then read on Envision for 0.1 sec/well.
Data analysis: GraphPad Prism 6 was used for establishment of progression curve. EC50S or IC50s were determined by 4-parameter logistic dose response equation.

T1 sequence (P43220 24-463): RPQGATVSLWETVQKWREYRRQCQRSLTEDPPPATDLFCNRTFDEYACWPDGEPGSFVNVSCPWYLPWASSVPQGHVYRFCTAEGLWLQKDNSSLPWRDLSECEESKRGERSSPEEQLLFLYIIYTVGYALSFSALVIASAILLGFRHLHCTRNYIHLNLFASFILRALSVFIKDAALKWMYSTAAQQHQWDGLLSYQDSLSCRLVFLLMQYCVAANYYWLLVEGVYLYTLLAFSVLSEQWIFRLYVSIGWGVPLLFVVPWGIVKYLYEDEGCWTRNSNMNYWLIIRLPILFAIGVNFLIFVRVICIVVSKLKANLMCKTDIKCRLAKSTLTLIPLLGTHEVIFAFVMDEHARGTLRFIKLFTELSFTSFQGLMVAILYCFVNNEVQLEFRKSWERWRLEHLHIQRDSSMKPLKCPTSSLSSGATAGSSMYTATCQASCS

On to `O=C(O)c1ccc2nc(CN3CC=C(c4cccc(OCc5ccc(Cl)cc5F)c4)CC3)n(C[C@@H]3CCO3)c2c1F` [Compound 237, (S)-2-((4-(3-((4-chloro-2-fluorobenzyl)oxy)phenyl)-3,6-dihydropyridin-1(2H)-yl)methyl)-7-fluoro-1-(oxetan-2-ylmethyl)-1H-benzo[d]imidazole-6-carboxylic acid], for which the entries for the “Bmax (POC)” value at GLP1R [1] and on GLP1R [2] were 17.7 ± 1.20 POC and 37.9 ± 4.66 POC, respectively.

On to `O=C(O)c1ccc2nc(CN3CC=C(c4ccc(F)c(OCc5ccc(Cl)cc5F)c4)CC3)n(C[C@@H]3CCO3)c2c1F` [Compound 238, (S)-2-((4-(3-((4-chloro-2-fluorobenzyl)oxy)-4-fluorophenyl)-3,6-dihydropyridin-1(2H)-yl)methyl)-7-fluoro-1-(oxetan-2-ylmethyl)-1H-benzo[d]imidazole-6-carboxylic acid], for which the “Bmax (POC)” value at GLP1R [1] turned out to be 52.8 ± 1.14 POC; at GLP1R [2], 55.8 ± 14.1 POC.

For the compound `O=C(O)c1ccc2nc(CN3CCC(c4cccc(OCc5ccc(Cl)cc5F)c4)CC3)n(C[C@@H]3CCO3)c2c1` [Compound 239, (S)-2-((4-(3-((4-chloro-2-fluorobenzyl)oxy)phenyl)piperidin-1-yl)methyl)-1-(oxetan-2-ylmethyl)-1H-benzo[d]imidazole-6-carboxylic acid], the results for the “Bmax (POC)” value on GLP1R [1] and on GLP1R [2] were 14.1 ± 1.57 POC and 25.6 ± 5.31 POC, respectively.

`O=C(O)c1ccc2nc(CN3CC=C(c4cccc(OCc5ccc(-c6cccnc6)cc5)n4)CC3)n(C[C@@H]3CCO3)c2c1` [Compound 242, (S)-1-(oxetan-2-ylmethyl)-2-((6-((4-(pyridin-3-yl)benzyl)oxy)-3′,6′-dihydro-[2,4′-bipyridin]-1′(2′H)-yl)methyl)-1H-benzo[d]imidazole-6-carboxylic add]: the “Bmax (POC)” value was determined as 15.4 POC at GLP1R [1] and 22.5 ± 4.32 POC at GLP1R [2].

Take `O=C(O)c1ccc2nc(CN3CC=C(c4cccc(OCc5ccc(-n6ccnc6)cc5)n4)CC3)n(C[C@@H]3CCO3)c2n1` [Compound 245, (S)-2-((4-(6-(4-(1H-imidazol-1-yl)benzyloxy)pyridin-2-yl)-5,6-dihydropyridin-1(2H)-yl)methyl)-3-(oxetan-2-ylmethyl)-3H-imidazo[4,5-b]pyridine-5-carboxylic add]: the “Bmax (POC)” value on GLP1R [1] worked out at 27.7 POC; on GLP1R [2] it was 38.0 ± 6.42 POC.
